In patent publication US10717716B2, “1,3,4-oxadiazole derivative compounds as histone deacetylase 6 inhibitor, and the pharmaceutical composition comprising the same” (Chong Kun Dang Pharmaceutical Corp., priority 2015, dated 2020):

Biological target: T1, human recombinant HDAC6 (Homo sapiens, UniProt Q9UBN7)
T1 construct: purchased Calbiochem 382180
T1 sequence (Q9UBN7 1-1215): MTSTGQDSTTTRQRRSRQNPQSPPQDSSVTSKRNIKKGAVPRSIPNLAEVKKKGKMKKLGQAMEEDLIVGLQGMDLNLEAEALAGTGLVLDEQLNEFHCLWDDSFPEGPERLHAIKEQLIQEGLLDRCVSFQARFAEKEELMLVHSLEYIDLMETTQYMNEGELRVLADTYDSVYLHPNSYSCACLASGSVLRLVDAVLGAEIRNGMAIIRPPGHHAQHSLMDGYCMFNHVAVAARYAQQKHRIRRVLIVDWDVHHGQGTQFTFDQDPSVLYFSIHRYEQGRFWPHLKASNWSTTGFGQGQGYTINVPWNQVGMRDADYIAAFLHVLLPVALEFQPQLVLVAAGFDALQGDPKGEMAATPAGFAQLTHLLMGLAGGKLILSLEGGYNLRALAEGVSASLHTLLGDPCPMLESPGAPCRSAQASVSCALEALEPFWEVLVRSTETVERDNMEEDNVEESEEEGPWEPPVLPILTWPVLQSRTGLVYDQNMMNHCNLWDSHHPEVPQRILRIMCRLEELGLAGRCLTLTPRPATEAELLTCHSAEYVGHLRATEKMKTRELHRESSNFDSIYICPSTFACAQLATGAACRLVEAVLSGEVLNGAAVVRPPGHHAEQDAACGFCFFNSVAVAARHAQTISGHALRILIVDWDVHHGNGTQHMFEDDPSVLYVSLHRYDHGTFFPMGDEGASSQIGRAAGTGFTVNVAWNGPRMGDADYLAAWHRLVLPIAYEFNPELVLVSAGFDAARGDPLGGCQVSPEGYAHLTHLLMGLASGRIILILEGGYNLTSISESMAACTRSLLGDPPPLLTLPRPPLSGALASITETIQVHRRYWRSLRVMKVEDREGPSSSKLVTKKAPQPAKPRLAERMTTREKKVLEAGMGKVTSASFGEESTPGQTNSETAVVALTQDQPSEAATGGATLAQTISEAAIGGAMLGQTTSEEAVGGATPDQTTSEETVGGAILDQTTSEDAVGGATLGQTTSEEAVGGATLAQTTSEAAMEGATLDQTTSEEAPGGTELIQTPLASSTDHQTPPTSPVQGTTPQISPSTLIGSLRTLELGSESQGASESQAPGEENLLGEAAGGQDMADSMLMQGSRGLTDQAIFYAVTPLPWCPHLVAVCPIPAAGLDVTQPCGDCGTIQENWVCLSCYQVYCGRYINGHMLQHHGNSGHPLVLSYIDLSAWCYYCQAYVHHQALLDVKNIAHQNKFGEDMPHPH
Test: HDAC6 enzyme activity inhibition assay (HDAC Fluorimetric Drug Discovery Kit)
Type: biochemical
Conditions: for HDAC6 selectivity (fold): HDAC6 over HDAC1; for IC50: human recombinant HDAC6, same protocol as HDAC1, read-out: HDAC6
How it was run: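 Human recombinant HDAC1 or HDAC6 (0.3 μg) reacted with 10 μM Fluor de Lys-SIRT1 substrate and 5-fold compound dilutions for 60 min at 30 °C. Developer II added for 30 min, fluorescence read at Ex 360/Em 460; IC50 calculated from the readings.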

Compound | HDAC6 selectivity (fold) | IC50 [nM]
O=C(NCCN1CCCN(Cc2ccccc2)CC1)N(Cc1ccc(-c2nnc(C(F)F)o2)cc1F)c1ccccc1 [Compound 22000, 3-(2-(4-Benzyl-1,4-diazepan-1-yl)ethyl)-1-(4-(5-(difluoromethyl)-1,3,4-oxadiazol-2-yl)-2-fluorobenzyl)-1-phenylurea] | 61 | 165
O=C(NCCN1CCC(N2CCOCC2)CC1)N(Cc1ccc(-c2nnc(C(F)F)o2)cc1F)c1ccccc1 [Compound 22003, 1-(4-(5-(Difluoromethyl)-1,3,4-oxadiazol-2-yl)-2-fluorobenzyl)-3-(2-(4-morpholinopiperidin-1-yl)ethyl)-1-phenylurea] | 99 | 101
O=C(NCCN1CCC(Cc2ccccc2)CC1)N(Cc1ccc(-c2nnc(C(F)F)o2)cc1F)c1ccccc1 [Compound 22004, 3-(2-(4-Benzylpiperidin-1-yl)ethyl)-1-(4-(5-(difluoromethyl)-1,3,4-oxadiazol-2-yl)-2-fluorobenzyl)-1-phenylurea] | 24 | 412
Cc1noc(C2CCN(CCNC(=O)N(Cc3ccc(-c4nnc(C(F)F)o4)cc3F)c3ccccc3)CC2)n1 [Compound 22005, 1-(4-(5-(Difluoromethyl)-1,3,4-oxadiazol-2-yl)-2-fluorobenzyl)-3-(2-(4-(3-methyl-1,2,4-oxadiazol-5-yl)piperidin-1-yl)ethyl)-1-phenylurea] | 79 | 126
CCN(CCNC(=O)N(Cc1ccc(-c2nnc(C(F)F)o2)cc1F)c1ccccc1)Cc1ccccc1 [Compound 22006, 3-(2-(Benzyl(ethyl)amino)ethyl)-1-(4-(5-(difluoromethyl)-1,3,4-oxadiazol-2-yl)-2-fluorobenzyl)-1-phenylurea] | 37 | 270
O=C(NCCN1CCN(c2ccccc2)CC1)N(Cc1ccc(-c2nnc(C(F)F)o2)cc1F)c1ccccc1 [Compound 22007, 1-(4-(5-(Difluoromethyl)-1,3,4-oxadiazol-2-yl)-2-fluorobenzyl)-1-phenyl-3-(2-(4-phenylpiperazin-1-yl)ethyl)urea] | 40 | 249
O=C(NCCN1CCN(c2ccccn2)CC1)N(Cc1ccc(-c2nnc(C(F)F)o2)cc1F)c1ccccc1 [Compound 22008, 1-(4-(5-(Difluoromethyl)-1,3,4-oxadiazol-2-yl)-2-fluorobenzyl)-1-phenyl-3-(2-(4-(pyridin-2-yl)piperazin-1-yl)ethyl)urea] | 73 | 138
O=C(NCCN1CCN(c2ccc(F)cc2)CC1)N(Cc1ccc(-c2nnc(C(F)F)o2)cc1F)c1ccccc1 [Compound 22010, 1-(4-(5-(Difluoromethyl)-1,3,4-oxadiazol-2-yl)-2-fluorobenzyl)-3-(2-(4-(4-fluorophenyl)piperazin-1-yl)ethyl)-1-phenylurea] | 29 | 341
O=C(NCCN1CCN(c2noc3ccccc23)CC1)N(Cc1ccc(-c2nnc(C(F)F)o2)cc1F)c1ccccc1 [Compound 22011, 3-(2-(4-(Benzo[d]isoxazol-3-yl)piperazin-1-yl)ethyl)-1-(4-(5-(difluoromethyl)-1,3,4-oxadiazol-2-yl)-2-fluorobenzyl)-1-phenylurea] | 31 | 320
O=C(NCCN1CCN(c2ccc(Cl)c(Cl)c2)CC1)N(Cc1ccc(-c2nnc(C(F)F)o2)cc1F)c1ccccc1 [Compound 22012, 3-(2-(4-(3,4-Dichlorophenyl)piperazin-1-yl)ethyl)-1-(4-(5-(difluoromethyl)-1,3,4-oxadiazol-2-yl)-2-fluorobenzyl)-1-phenylurea] | 10 | 1020
O=C(NCCN1CCN(Cc2ccccc2)CC1)N(Cc1ccc(-c2nnc(C(F)F)o2)cc1F)c1ccccc1 [Compound 22013, 3-(2-(4-Benzylpiperazin-1-yl)ethyl)-1-(4-(5-(difluoromethyl)-1,3,4-oxadiazol-2-yl)-2-fluorobenzyl)-1-phenylurea] | 51 | 197
O=C(NCCN(Cc1ccccc1)Cc1ccccc1)N(Cc1ccc(-c2nnc(C(F)F)o2)cc1F)c1ccccc1 [Compound 22017, 3-(2-(Dibenzylamino)ethyl)-1-(4-(5-(difluoromethyl)-1,3,4-oxadiazol-2-yl)-2-fluorobenzyl)-1-phenylurea] | 7 | 1380
O=C(N1CCOCC1)N(Cc1ccc(-c2nnc(C(F)F)o2)cc1F)c1nccs1 [Compound 22018, N-(4-(5-(Difluoromethyl)-1,3,4-oxadiazol-2-yl)-2-fluorobenzyl)-N-(thiazol-2-yl)morpholine-4-carboxamide] | 4 | 2390
O=C(N1CCOCC1)N(Cc1ccc(-c2nnc(C(F)F)o2)cc1F)c1cccs1 [Compound 22019, N-(4-(5-(Difluoromethyl)-1,3,4-oxadiazol-2-yl)-2-fluorobenzyl)-N-(thiophen-2-yl)morpholine-4-carboxamide] | 79 | 127
O=C(N1CCS(=O)(=O)CC1)N(Cc1ccc(-c2nnc(C(F)F)o2)cc1F)c1cccs1 [Compound 22020, N-(4-(5-(Difluoromethyl)-1,3,4-oxadiazol-2-yl)-2-fluorobenzyl)-N-(thiophen-2-yl)thiomorpholine-4-carboxamide 1,1-dioxide] | 73 | 138

Next, values leading:

HDAC6 selectivity (fold) | IC50 [nM] | Compound
85 | 117 | CC(=O)N1CCCN(CCNC(=O)N(Cc2ccc(-c3nnc(C(F)F)o3)cc2F)c2ccccc2)CC1 [Compound 21999, 3-(2-(4-Acetyl-1,4-diazepan-1-yl)ethyl)-1-(4-(5-(difluoromethyl)-1,3,4-oxadiazol-2-yl)-2-fluorobenzyl)-1-phenylurea]
116 | 87 | O=C(C1CC1)N1CCN(CCNC(=O)N(Cc2ccc(-c3nnc(C(F)F)o3)cc2F)c2ccccc2)CC1 [Compound 22001, 3-(2-(4-(Cyclopropanecarbonyl)piperazin-1-yl)ethyl)-1-(4-(5-(difluoromethyl)-1,3,4-oxadiazol-2-yl)-2-fluorobenzyl)-1-phenylurea]
85 | 118 | CN(C)CCCN1CCN(CCNC(=O)N(Cc2ccc(-c3nnc(C(F)F)o3)cc2F)c2ccccc2)CC1 [Compound 22002, 1-(4-(5-(Difluoromethyl)-1,3,4-oxadiazol-2-yl)-2-fluorobenzyl)-3-(2-(4-(3-(dimethylamino)propyl)piperazin-1-yl)ethyl)-1-phenylurea]
97 | 103 | O=C(NCCN1CCN(c2ccncc2)CC1)N(Cc1ccc(-c2nnc(C(F)F)o2)cc1F)c1ccccc1 [Compound 22009, 1-(4-(5-(Difluoromethyl)-1,3,4-oxadiazol-2-yl)-2-fluorobenzyl)-1-phenyl-3-(2-(4-(pyridin-4-yl)piperazin-1-yl)ethyl)urea]
46 | 219 | O=C(NCCN1CCN(CCc2ccccc2)CC1)N(Cc1ccc(-c2nnc(C(F)F)o2)cc1F)c1ccccc1 [Compound 22014, 1-(4-(5-(Difluoromethyl)-1,3,4-oxadiazol-2-yl)-2-fluorobenzyl)-3-(2-(4-phenethylpiperazin-1-yl)ethyl)-1-phenylurea]
105 | 95 | O=C(NCCN1CCN(CCc2ccncc2)CC1)N(Cc1ccc(-c2nnc(C(F)F)o2)cc1F)c1ccccc1 [Compound 22015, 1-(4-(5-(Difluoromethyl)-1,3,4-oxadiazol-2-yl)-2-fluorobenzyl)-1-phenyl-3-(2-(4-(2-(pyridin-4-yl)ethyl)piperazin-1-yl)ethyl)urea]
42 | 237 | O=C(NCCN1CCN(C/C=C/c2ccccc2)CC1)N(Cc1ccc(-c2nnc(C(F)F)o2)cc1F)c1ccccc1 [Compound 22016, 3-(2-(4-Cinnamylpiperazin-1-yl)ethyl)-1-(4-(5-(difluoromethyl)-1,3,4-oxadiazol-2-yl)-2-fluorobenzyl)-1-phenylurea]
